Results from US6239087A, “Detergent compositions containing fragrance precursors and the fragrance precursors themselves” (The Procter & Gamble Company, priority 1998, dated 2001).

Assay: Pro-Fragrant Hydrolysis Test (hydrolysis half-life t-1/2 by UV/Vis)
Assay type: physicochemical
Conditions: pH 0; 90/10 dioxane/water, 30° C.
Method: Hydrolysis half-life is the measurement used to determine the ease with which the pro-fragrance compound undergoes acid hydrolysis and thereby releases its fragrance component(s) upon exposure to acid conditions. […] Preferably, pro-fragrances of the invention have a half-life at pH 2 of less than 60 minutes. For granular detergents, the more reactive pro-fragrances, that is, those with half-life at pH 2 of less than one minute, are most suitable, although those having a half-life of less than 60 minutes at pH 0 are also useful. For liquid detergent applications, pro-fragrances having a half-life of less than 60 minutes at pH 0, and half-life greater than one minute at pH 2 should preferably be used.
Hydrolysis half-life is determined by UV/V is spectroscopy in a 90/10 dioxane/water system at 30° C. by following the appearance of the carbonyl absorbance. Because of the hydrophobicity of the pro-fragrance compounds of the invention, a high dioxane/water ratio is needed to ensure solubility of the pro-fragrance. The pH of the water used is achieved by using aqueous HCl. The concentration of the pro-fragrance in the dioxane/water system can be adjusted to achieve convenient, measurable absorbance changes.
All measurements are carried out using a Hewlett Packard 8452 A Diode Array Spectrophotometer using quartz 1 cm path length cuvette cells. […] The pH's are measured using an Orion 230 A standardized with pH 4 and pH 7 buffers. […]
Pro-fragrance is weighed out in a 10.00 ml volumetric flask using an analytical balance (Mettler AE 200) Precision is 1/10 mg. […] Hydrolysis time is measured, starting upon addition of the acid. […] The absorbance of the pro-fragrance solution (At) is followed at a regular series of time intervals, and the cuvette is kept in the water-bath at the above-indicated temperature between measurements. Initial absorbance (Ao) measurements are carried out using an equal concentration of pro-fragrance in a 90/10 v/v dioxane-deionized water solution, and final absorbance (Af) measurements are taken using the hydrolyzed pro-fragrance solution after the hydrolysis is complete. The wavelength at which the hydrolysis is followed is chosen at the wavelength of the absorbance maximum of the parent aldehyde or ketone.
Reaction half-lifes are determined using conventional procedures. The observed first-order rate constant (kobs) is determined by slope of the line provided by plotting the following finction vs time (min):
wherein said function is the natural log of the ratio between the absorbance difference at initial time (Ao) and final time (Af) over the absorbance difference at time t (At) and final time (Af). […]

t1/2 (hydrolysis half-life)	SMILES
less than 1 minutes	CCCCCCCCCCOC(OCCCCCCCCCC)c1ccc(OC)cc1 [Example 1, Didecyl Anisaldehyde Acetal]
less than one	CC(C)=CCCC(C)=CC(OC/C=C(\C)CCC=C(C)C)OC/C=C(\C)CCC=C(C)C [Example 2, Digeranyl Citral Acetal]
less than one	CCCCCCCCCCOC(C)(CCc1ccccc1)OCCCCCCCCCC [Example 3, Didecyl Benzyl Acetone Ketal]

SMILES	t1/2 (hydrolysis half-life)
CCCCCCCCCC(OC/C=C(\C)CCC=C(C)C)OC/C=C(\C)CCC=C(C)C [Example 4, Digeranyl Decanal Acetal]	44 min
